Test results from PubChem BioAssay (NCI).
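Abbreviation: GI50, concentration required for 50% inhibition of growth. TGI: total growth inhibition.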

Legend:
Experiment in all cases: inhibition of tumour cell growth, NCI panel, 384-well format
NCI/ADR-RES ovarian = system: NCI/ADR-RES ovarian
CCRF-CEM leukemia = system: CCRF-CEM leukemia
MDA-MB-468 breast = system: MDA-MB-468 breast
KM12 colon = system: KM12 colon
NCI-H23 lung = system: NCI-H23 lung
IGROV1 ovarian = system: IGROV1 ovarian
UACC-257 melanoma = system: UACC-257 melanoma
A498 renal = system: A498 renal
SK-OV-3 ovarian = system: SK-OV-3 ovarian
HS 578T breast = system: HS 578T breast
RPMI-8226 leukemia = system: RPMI-8226 leukemia
SR leukemia = system: SR leukemia
K-562 leukemia = system: K-562 leukemia
HOP-92 NSCLC = system: HOP-92 NSCLC
A549 NSCLC = system: A549 NSCLC
M14 melanoma = system: M14 melanoma
PC-3 prostate = system: PC-3 prostate
OVCAR-5 ovarian = system: OVCAR-5 ovarian
HT29 colon = system: HT29 colon
MALME-3M melanoma = system: MALME-3M melanoma
UO-31 renal = system: UO-31 renal
SW-620 colon = system: SW-620 colon
SK-MEL-28 melanoma = system: SK-MEL-28 melanoma
SNB-75 CNS = system: SNB-75 CNS
TK-10 renal = system: TK-10 renal
NCI-H460 NSCLC = system: NCI-H460 NSCLC
786-0 renal = system: 786-0 renal
SK-MEL-5 melanoma = system: SK-MEL-5 melanoma
RXF 393 renal = system: RXF 393 renal
NCI-H226 lung = system: NCI-H226 lung
HL-60(TB) leukemia = system: HL-60(TB) leukemia
SN12C renal = system: SN12C renal
MDA-MB-231 breast = system: MDA-MB-231 breast
BT-549 breast = system: BT-549 breast
NCI-H522 lung = system: NCI-H522 lung
MOLT-4 leukemia = system: MOLT-4 leukemia
NCI-H322M lung = system: NCI-H322M lung
MCF7 breast = system: MCF7 breast
MDA-MB-435 melanoma = system: MDA-MB-435 melanoma
ACHN renal = system: ACHN renal
HOP-62 NSCLC = system: HOP-62 NSCLC
SNB-19 CNS = system: SNB-19 CNS
HCT-15 colon = system: HCT-15 colon
HCC-2998 colon = system: HCC-2998 colon
EKVX NSCLC = system: EKVX NSCLC
COLO 205 colon = system: COLO 205 colon
OVCAR-4 ovarian = system: OVCAR-4 ovarian
DU-145 prostate = system: DU-145 prostate
T-47D breast = system: T-47D breast
UACC-62 melanoma = system: UACC-62 melanoma
U251 glioblastoma = system: U251 glioblastoma
SF-539 CNS = system: SF-539 CNS
LOX IMVI melanoma = system: LOX IMVI melanoma
SF-295 CNS = system: SF-295 CNS
SF-268 CNS = system: SF-268 CNS
CAKI-1 renal = system: CAKI-1 renal
OVCAR-3 ovarian = system: OVCAR-3 ovarian
OVCAR-8 ovarian = system: OVCAR-8 ovarian

CN1CCN(c2nc(C3=C(c4c[nH]c5ccccc45)C(=O)NC3=O)c3ccccc3n2)CC1 gave a GI50 (NCI/ADR-RES ovarian) of 19.5 µM, a TGI (NCI/ADR-RES ovarian) of 41.3 µM and a GI50 (CCRF-CEM leukemia) of 13.1 µM. For the same molecule, the TGI (CCRF-CEM leukemia) was 25.9 µM, the GI50 (MDA-MB-468 breast) was 18.3 µM and the TGI (MDA-MB-468 breast) was 32.5 µM. The GI50 (KM12 colon) was 3.7 µM, the TGI (KM12 colon) was 15.4 µM and the GI50 (NCI-H23 lung) was 16.1 µM. The TGI (NCI-H23 lung) was 29.8 µM, the GI50 (IGROV1 ovarian) was 18.1 µM and the TGI (IGROV1 ovarian) was 34.5 µM. The GI50 (UACC-257 melanoma) was 13.6 µM, the TGI (UACC-257 melanoma) was 26.5 µM and the GI50 (A498 renal) was 15.3 µM. For the same molecule, the TGI (A498 renal) was 28.6 µM, the GI50 (SK-OV-3 ovarian) was 18.1 µM and the TGI (SK-OV-3 ovarian) was 38.8 µM. The GI50 (HS 578T breast) was 16.8 µM, the TGI (HS 578T breast) was 30.5 µM and the GI50 (RPMI-8226 leukemia) was 10.1 µM. It also gave a TGI (RPMI-8226 leukemia) of 21.7 µM, a GI50 (SR leukemia) of 7.06 µM and a TGI (SR leukemia) of 19.7 µM. It also gave a GI50 (K-562 leukemia) of 12.2 µM, a TGI (K-562 leukemia) of 24.7 µM and a GI50 (HOP-92 NSCLC) of 15.8 µM. It also gave a TGI (HOP-92 NSCLC) of 29.4 µM, a GI50 (A549 NSCLC) of 16.9 µM and a TGI (A549 NSCLC) of 36.6 µM. The GI50 (M14 melanoma) was 13.9 µM, the TGI (M14 melanoma) was 26.8 µM and the GI50 (PC-3 prostate) was 17.5 µM. The TGI (PC-3 prostate) was 34.3 µM, the GI50 (OVCAR-5 ovarian) was 20.8 µM and the TGI (OVCAR-5 ovarian) was 44 µM. It also gave a GI50 (HT29 colon) of 13.9 µM, a TGI (HT29 colon) of 27.4 µM and a GI50 (MALME-3M melanoma) of 4.68 µM. For the same molecule, the TGI (MALME-3M melanoma) was 16.2 µM, the GI50 (UO-31 renal) was 17.9 µM and the TGI (UO-31 renal) was 44.9 µM. It also gave a GI50 (SW-620 colon) of 18.5 µM, a TGI (SW-620 colon) of 32.6 µM and a GI50 (SK-MEL-28 melanoma) of 16.4 µM. The TGI (SK-MEL-28 melanoma) was 30 µM, the GI50 (SNB-75 CNS) was 19.9 µM and the TGI (SNB-75 CNS) was 37.3 µM. The GI50 (TK-10 renal) was 17.8 µM, the TGI (TK-10 renal) was 44.2 µM and the GI50 (NCI-H460 NSCLC) was 18.6 µM. For the same molecule, the TGI (NCI-H460 NSCLC) was 32.6 µM, the GI50 ([…]-0 renal) was 13.8 µM and the TGI (786-0 renal) was 26.9 µM. It also gave a GI50 (SK-MEL-5 melanoma) of 5.58 µM, a TGI (SK-MEL-5 melanoma) of 18.7 µM and a GI50 (RXF 393 renal) of 15.1 µM. For the same molecule, the TGI (RXF 393 renal) was 28.4 µM, the GI50 (NCI-H226 lung) was 13.4 µM and the TGI (NCI-H226 lung) was 30.3 µM. For the same molecule, the GI50 (HL-60(TB) leukemia) was 15 µM, the TGI (HL-60(TB) leukemia) was 28.2 µM and the GI50 (SN12C renal) was 13.2 µM. The TGI (SN12C renal) was 26.3 µM, the GI50 (MDA-MB-231 breast) was 15.4 µM and the TGI (MDA-MB-231 breast) was 30.7 µM. The GI50 (BT-549 breast) was 13.5 µM, the TGI (BT-549 breast) was 26.3 µM and the GI50 (NCI-H522 lung) was 15.4 µM. For the same molecule, the TGI (NCI-H522 lung) was 28.7 µM, the GI50 (MOLT-4 leukemia) was 13.1 µM and the TGI (MOLT-4 leukemia) was 25.8 µM. For the same molecule, the GI50 (NCI-H322M lung) was 16.3 µM, the TGI (NCI-H322M lung) was 31.2 µM and the GI50 (MCF7 breast) was 10.9 µM. The TGI (MCF7 breast) was 23 µM, the GI50 (MDA-MB-435 melanoma) was 16.6 µM and the TGI (MDA-MB-435 melanoma) was 30.2 µM. The GI50 (ACHN renal) was 15.5 µM, the TGI (ACHN renal) was 30 µM and the GI50 (HOP-62 NSCLC) was 13.7 µM. For the same molecule, the TGI (HOP-62 NSCLC) was 26.7 µM, the GI50 (SNB-19 CNS) was 19.8 µM and the TGI (SNB-19 CNS) was 39.5 µM. The GI50 (HCT-15 colon) was 12.1 µM, the TGI (HCT-15 colon) was 28.4 µM and the GI50 (HCC-2998 colon) was 17.7 µM. The TGI (HCC-2998 colon) was 31.6 µM, the GI50 (EKVX NSCLC) was 17.8 µM and the TGI (EKVX NSCLC) was 33.2 µM. It also gave a GI50 (COLO 205 colon) of 6.82 µM, a TGI (COLO 205 colon) of 19.6 µM and a GI50 (OVCAR-4 ovarian) of 21.8 µM. For the same molecule, the TGI (OVCAR-4 ovarian) was 44.6 µM, the GI50 (DU-145 prostate) was 16.3 µM and the TGI (DU-145 prostate) was 32.6 µM. For the same molecule, the GI50 (T-47D breast) was 20.2 µM, the TGI (T-47D breast) was 35.7 µM and the GI50 (UACC-62 melanoma) was 15.4 µM. It also gave a TGI (UACC-62 melanoma) of 28.8 µM, a GI50 (U251 glioblastoma) of 16.1 µM and a TGI (U251 glioblastoma) of 29.9 µM. The GI50 (SF-539 CNS) was 15 µM, the TGI (SF-539 CNS) was 28.3 µM and the GI50 (LOX IMVI melanoma) was 16.1 µM. For the same molecule, the TGI (LOX IMVI melanoma) was 29.7 µM, the GI50 (SF-295 CNS) was 18.6 µM and the TGI (SF-295 CNS) was 32.7 µM. The GI50 (SF-268 CNS) was 18.1 µM, the TGI (SF-268 CNS) was 32.3 µM and the GI50 (CAKI-1 renal) was 16.3 µM. It also gave a TGI (CAKI-1 renal) of 32.3 µM, a GI50 (OVCAR-3 ovarian) of 15.8 µM and a TGI (OVCAR-3 ovarian) of 30.7 µM. The GI50 (OVCAR-8 ovarian) was 13.8 µM and the TGI (OVCAR-8 ovarian) was 27.6 µM.
